Reference: ChEMBL document CHEMBL5303304, “EUbOPEN Chemogenomics Library - IncuCyte” (2023)

Assays:
Type in all cases: toxicity, cell-based
HEK-293T = assay: Incucyte cell viability with HEK293T; details: human, 10 µM, compound concentration 10 uM
Fibroblast = assay: Incucyte cell viability with human fibroblast; details: 10 µM, compound concentration 10 uM
U2OS = assay: Incucyte cell viability with U2OS; details: human, 10 µM, compound concentration 10 uM
Further: unitless GR value; below 1 slowed growth and below 0 cell loss.

| SMILES | Growth Rate (HEK-293T; 6 h, replicate number 1) | Growth Rate (HEK-293T; 6 h, replicate number 2) | Growth Rate (HEK-293T; 12 h, replicate number 1) | Growth Rate (HEK-293T; 12 h, replicate number 2) | Growth Rate (HEK-293T; 18 h, replicate number 1) | Growth Rate (HEK-293T; 18 h, replicate number 2) | Growth Rate (HEK-293T; 24 h, replicate number 1) | Growth Rate (HEK-293T; 24 h, replicate number 2) | Growth Rate (Fibroblast; 6 h, replicate number 2) | Growth Rate (Fibroblast; 12 h, replicate number 1) | Growth Rate (Fibroblast; 12 h, replicate number 2) | Growth Rate (Fibroblast; 18 h, replicate number 1) | Growth Rate (Fibroblast; 24 h, replicate number 1) | Growth Rate (Fibroblast; 24 h, replicate number 2) | Growth Rate (U2OS; 6 h, replicate number 2) | Growth Rate (U2OS; 12 h, replicate number 1) | Growth Rate (U2OS; 12 h, replicate number 2) | Growth Rate (U2OS; 18 h, replicate number 2) | Growth Rate (U2OS; 24 h, replicate number 1) | Growth Rate (U2OS; 24 h, replicate number 2) | other results |
| --- | --- | --- | --- | --- | --- | --- | --- | --- | --- | --- | --- | --- | --- | --- | --- | --- | --- | --- | --- | --- | --- |
| c1ccc2c(c1)SCc1c-2[nH]c2ccccc12 | -0.95 | -0.96 | -0.76 | -0.7 | -0.53 | -0.49 | -0.37 | -0.38 | -1 | -0.96 | -0.98 | -0.86 | -0.75 | -0.84 | -0.66 | -0.65 | -0.52 | -0.49 | -0.5 | -0.42 | Growth Rate (Fibroblast; 0 h, replicate number 1): -1; Growth Rate (Fibroblast; 6 h, replicate number 1): -0.99; Growth Rate (Fibroblast; 18 h, replicate number 2): -0.94; Growth Rate (U2OS; 0 h, replicate number 1): -0.33; Growth Rate (U2OS; 6 h, replicate number 1): -0.4; Growth Rate (U2OS; 18 h, replicate number 1): -0.63 |
| COc1ncc2cc(C(=O)Nc3cc(C(=O)NCc4cccc(Cl)c4)ccc3Cl)c(=O)[nH]c2n1 | 0.22 | -0.03 | 0.64 | 0.55 | 0.51 | 0.64 | 0.67 | 0.79 | -0.4 | -0.98 | 0.79 | -0.46 | 0.44 | 0.92 | 0.67 |  |  | 0.97 |  | 0.97 | Growth Rate (Fibroblast; 0 h, replicate number 2): 0.35 |
| Cn1cc(-c2ccc3occ(-c4cccc(-c5ccncc5)c4)c3n2)cn1 | -0.45 | -0.34 | -0.46 | 0 | -0.15 | 0.33 | 0.35 | 0.52 | -0.75 | -0.8 | 0.4 | 0.07 | 0.25 | 0.73 | 0.44 | 0.6 | 0.51 | 0.73 | 0.7 | 0.87 | Growth Rate (Fibroblast; 0 h, replicate number 1): 0.22; Growth Rate (Fibroblast; 18 h, replicate number 2): 0.54; Growth Rate (U2OS; 0 h, replicate number 2): 0.89; Growth Rate (U2OS; 6 h, replicate number 1): -0.24; Growth Rate (U2OS; 18 h, replicate number 1): 0.65 |
| CCN1/C(=C/C(C)=O)Sc2ccc(OC(C)=O)cc21 | -0.36 | 0.16 | 0.1 | 0.67 | 0.02 | 0.66 | 0.09 | 0.67 | -0.62 |  |  |  | 0.91 |  | 0.95 | 0.91 | 0.62 | 0.94 | 0.98 | 0.9 | Growth Rate (Fibroblast; 0 h, replicate number 2): 0.08; Growth Rate (U2OS; 0 h, replicate number 1): 0.39; Growth Rate (U2OS; 0 h, replicate number 2): -0.86; Growth Rate (U2OS; 18 h, replicate number 1): 1 |
| COc1ccc2nc3ccc(OC)cc3c(SCCCN)c2c1.Cl | -0.94 | 0.26 | -0.75 | 0.76 | -0.57 | 0.45 | -0.41 | 0.33 |  |  |  |  |  | 0.89 |  |  |  | 0.99 | 0.86 | 0.85 | Growth Rate (Fibroblast; 0 h, replicate number 2): -0.39; Growth Rate (Fibroblast; 6 h, replicate number 1): -1; Growth Rate (U2OS; 0 h, replicate number 2): -0.96 |
